Tests used:
[1] = tested on: HL-60, human proleukemia cells; assay: Cell-MTS cellular proliferation assay, HL-60; type: cell-based; details: Homo sapiens, HL-60 cells, 168 hr incubation
Method: (§1) A colorimetric cellular proliferation assay (Cell-MTS assay) was performed to assess the ability of the heterocyclic derivative […] inhibitors disclosed herein to effect the proliferation of established cancer cell lines.
(§2) The Cell-MTS assay is a 7-day plate-based colorimetric assay which quantifies the amount of newly generated NADH in the presence or absence of test compound. The NADH level is used for the quantification of cancer cell proliferation.
(§3) Established cancer cell lines with a variety of driving mutations were obtained from American Type Culture Collection (ATCC) and routinely passaged according to ATCC protocols. For routine assay, these cells were seeded at densities which enabled ˜90% confluence after 7 days of culture. Raji, human Burkitts lymphoma cells, (cMYC) were seeded at 15,000 cells per 96-well. HL-60, human proleukemia cells, (NRAS, p16, p53, c-Myc amplified) were seeded at 5,000 cells per 96-well. NCI-H460, human non-small cell lung cancer cells. (KRAS, PIK3CA, STLK11, p16) were seeded at 3,000 cells per 96-well. 24 hr after plating, cells received an 11 point dilution of test compound with final concentration ranges from 100 µM to 2.0 nM. Cells were incubated in the presence of compound for 168 hr at 37° C., and 5% CO2. At the end of this incubation period, 80 µL of media is removed and 20 µL of CellTiter 96® AQueous Non-Radioactive Cell Proliferation Assay solution (Promega) was added. The cells were incubated until the OD490 was >0.6. IC50 values were calculated using the IDBS XLfit software package and include background subtracted OD490 values and normalization to DMSO controls. Cellular proliferation IC50 values were uploaded and archived using the Chem Biography Platform. Table 3 provides the results of the in vitro enzyme inhibition assay experiments and the in vitro cell-based assay experiments performed with the compounds disclosed herein: […]

[2] = tested on: Raji, human Burkitts lymphoma cells; assay: Cell-MTS cellular proliferation assay, Raji; type: cell-based; details: Homo sapiens, 168 hr incubation
Method: as §1, §2, §3

BRD4(BD1) = BRD4(BD1) (Homo sapiens (Human), UniProt O60885); assay: In vitro enzyme inhibition assay (BRD4 AlphaScreen, H4-tetraacetyl peptide); type: binding; details: BRD4(BD1) 2 nM, peptide 15 nM
Method: Determination of the IC50 for the heterocyclic derivative BRD4 inhibitors disclosed herein was performed as follows. His-tagged […] was cloned, expressed and purified to homogeneity. Filipakopoulos et al., 468 Nature 1067 (2010). BRD4 binding and inhibition was assessed by monitoring the interaction of biotinylated H4-tetraacetyl peptide (AnaSpec, H4K5/8/12/16(Ac), biotin—labeled) with the target using the AlphaScreen technology (Life Technologies). In a 384-well ProxiPlate BRD4(BD1) (2 nM final) was combined with peptide (15 nM final) in 50 mM HEPES (pH 7.3), 10 mM NaCl, 0.25 mM TCEP, 0.1% (w/v) BSA, and 0.005% (w/v) Brij-35 either in the presence of DMSO (final 0.4% DMSO) or compound dilution series in DMSO. After 20 min incubation at RT, Alpha streptavidin donor beads and Nickel Chelate acceptor beads were added to a final concentration of 5 μg/mL. After 2 hr of equilibration, plates were read on an Envision instrument and the IC50 was calculated using a four parameter non-linear curve fit.
The ability of the compounds disclosed herein to inhibit BRD4 activity was quantified and the respective IC50 value was determined.

[3] = tested on: NCI-H460, human non-small cell lung cancer cells; assay: Cell-MTS cellular proliferation assay, NCI-H460; type: cell-based; details: Homo sapiens, 168 hr incubation
Method: as §1, §2, §3

SMILES | IC50 [1] | IC50 [2] | IC50 (BRD4(BD1)) | IC50 [3]
Cc1cc(-c2cc3c(cc2OCC2CC2)CN(C)S3(=O)=O)cn(C)c1=O [Example 5, 5-[5-(cyclopropylmethoxy)-2-methyl-1,1-dioxo-3H-1,2-benzothiazol-6-yl]-1,3-dimethylpyridin-2-one] | ≤ 500 nM | 500 to 5000 nM | ≤ 500 nM | > 5000 nM
CCN1Cc2cc(OCC3CC3)c(-c3cn(C)c(=O)c4ccccc34)cc2S1(=O)=O [Example 7, 4-[5-(cyclopropylmethoxy)-2-ethyl-1,1-dioxo-3H-1,2-benzothiazol-6-yl]-2-methylisoquinolin-1-one] | ≤ 500 nM | ≤ 500 nM | ≤ 500 nM | 500 to 5000 nM
CN1Cc2cc(OCC(F)(F)F)c(-c3cn(C)c(=O)c4ccccc34)cc2S1(=O)=O [Example 10, 2-methyl-4-[2-methyl-1,1-dioxo-5-(2,2,2-trifluoroethoxy)-3H-1,2-benzothiazol-6-yl]isoquinolin-1-one] | ≤ 500 nM | 500 to 5000 nM | ≤ 500 nM | 500 to 5000 nM
Cc1cc(-c2cc3c(cc2OCC2CC2)CCN3S(C)(=O)=O)cn(C)c1=O [Example 15, 5-[5-(cyclopropylmethoxy)-1-methylsulfonyl-2,3-dihydroindol-6-yl]-1,3-dimethylpyridin-2-one] | ≤ 500 nM | ≤ 500 nM | ≤ 500 nM | > 5000 nM
Cn1cc(-c2cc(NS(C)(=O)=O)c3ccn(Cc4ccccc4)c3c2)c2ccccc2c1=O [Example 17, N-[1-benzyl-6-(2-methyl-1-oxoisoquinolin-4-yl)indol-4-yl]methanesulfonamide] | ≤ 500 nM | ≤ 500 nM | ≤ 500 nM | 500 to 5000 nM
Cc1cc(-c2cc(S(C)(=O)=O)cc3cc(C4CC4)oc23)cn(C)c1=O [Example 23, 5-(2-cyclopropyl-5-methylsulfonyl-1-benzofuran-7-yl)-1,3-dimethylpyridin-2-one] | ≤ 500 nM | 500 to 5000 nM | ≤ 500 nM | > 5000 nM
Cn1cc(-c2cc(S(C)(=O)=O)cc3cc(-c4ccccc4)oc23)c2ccccc2c1=O [Example 26, 2-methyl-4-(5-methylsulfonyl-2-phenyl-1-benzofuran-7-yl)isoquinolin-1-one] | ≤ 500 nM | ≤ 500 nM | ≤ 500 nM | 500 to 5000 nM
CCS(=O)(=O)Nc1cc(-c2cc(C)c(=O)n(C)c2)cc2c1nnn2Cc1ccc(F)cc1 [Example 28, N-[6-(1,5-dimethyl-6-oxopyridin-3-yl)-1-[(4-fluorophenyl)methyl]benzotriazol-4-yl]ethanesulfonamide] | ≤ 500 nM | ≤ 500 nM | ≤ 500 nM | 500 to 5000 nM
Cn1cc(-c2cc3c(S(C)(=O)=O)nn(C)c3cc2OCC2CC2)c2ccccc2c1=O [Example 29, 4-[6-(cyclopropylmethoxy)-1-methyl-3-methylsulfonylindazol-5-yl]-2-methylisoquinolin-1-one] | ≤ 500 nM | ≤ 500 nM | ≤ 500 nM | 500 to 5000 nM

More lines, now with the values ahead:

IC50 [1] | IC50 [2] | IC50 (BRD4(BD1)) | IC50 [3] | SMILES
≤ 500 nM | 500 to 5000 nM | ≤ 500 nM | 500 to 5000 nM | CN1Cc2cc(OCC3CC3)c(-c3cn(C)c(=O)c4ccccc34)cc2S1(=O)=O [Example 6, 4-[5-(cyclopropyhnethoxy)-2-methyl-1,1-dioxo-3H-1,2-benzothiazol-6-yl]-2-methylisoquinolin-1-one]
≤ 500 nM | 500 to 5000 nM | ≤ 500 nM | 500 to 5000 nM | CCN1Cc2cc(OCC3CC3)c(-c3cc(C)c(=O)n(C)c3)cc2S1(=O)=O [Example 8, 5-[5-(cyclopropylmethoxy)-2-ethyl-1,1-dioxo-3H-1,2-benzothiazol-6-yl]-1,3-dimethylpyridin-2-one]
≤ 500 nM | 500 to 5000 nM | ≤ 500 nM | > 5000 nM | Cc1cc(-c2cc3c(cc2OCC(F)(F)F)CN(C)S3(=O)=O)cn(C)c1=O [Example 9, 1,3-dimethyl-5-[2-methyl-1,1-dioxo-5-(2,2,2-trifluoroethoxy)-3H-1,2-benzothiazol-6-yl]pyridine-2-one]
≤ 500 nM | ≤ 500 nM | ≤ 500 nM | > 5000 nM | Cc1cc(-c2cc3c(cc2Oc2ccc(F)cc2F)CN(C)S3(=O)=O)cn(C)c1=O [Example 11, 5-[5-(2,4-difluorophenoxy)-2-methyl-1,1-dioxo-3H-1,2-benzothiazol-6-yl]-1,3-dimethylpyridin-2-one]
≤ 500 nM | ≤ 500 nM | ≤ 500 nM | 500 to 5000 nM | Cn1cc(-c2cc3c(cc2OCC2CC2)CCN3S(C)(=O)=O)c2ccccc2c1=O [Example 13, 4-[5-(cyclopropylmethoxy)-1-methylsulfonyl-2,3-dihydroindol-6-yl]-2-methylisoquinolin-1-one]
≤ 500 nM | ≤ 500 nM | ≤ 500 nM | 500 to 5000 nM | CCS(=O)(=O)N1CCc2cc(OCC3CC3)c(-c3cn(C)c(=O)c4ccccc34)cc21 [Example 14, 4-[5-(cyclopropylmethoxy)-1-ethylsulfonyl-2,3-dihydroindol-6-yl]-2-methylisoquinolin-1-one]
≤ 500 nM | ≤ 500 nM | ≤ 500 nM | > 5000 nM | CCS(=O)(=O)N1CCc2cc(OCC3CC3)c(-c3cc(C)c(=O)n(C)c3)cc21 [Example 16, 5-[5-(cyclopropylmethoxy)-1-ethylsulfonyl-2,3-dihydroindol-6-yl]-1,3-dimethylpyridin-2-one]
≤ 500 nM | ≤ 500 nM | ≤ 500 nM | 500 to 5000 nM | Cc1cc(-c2cc(NS(C)(=O)=O)c3ccn(Cc4ccccc4)c3c2)cn(C)c1=O [Example 18, N-[1-benzyl-6-(1,5-dimethyl-6-oxopyridin-3-yl)indol-4-yl]methanesulfonamide]
≤ 500 nM | ≤ 500 nM | ≤ 500 nM | 500 to 5000 nM | Cc1cc(-c2cc(NS(C)(=O)=O)c3c(c2)N(Cc2ccccc2)CC3)cn(C)c1=O [Example 19, N-[1-benzyl-6-(1,5-dimethyl-6-oxopyridin-3-yl)-2,3-dihydroindol-4-yl]methanesulfonamide]
≤ 500 nM | ≤ 500 nM | ≤ 500 nM | 500 to 5000 nM | Cn1cc(-c2cc(NS(C)(=O)=O)c3c(c2)N(Cc2ccccc2)CC3)c2ccccc2c1=O [Example 20, N-[1-benzyl-6-(2-methyl-1-oxoisoquinolin-4-yl)-2,3-dihydroindol-4-yl]methanesulfonamide]
≤ 500 nM | ≤ 500 nM | ≤ 500 nM | 500 to 5000 nM | Cn1cc(-c2cc(S(C)(=O)=O)cc3cc(C4CC4)oc23)c2ccccc2c1=O [Example 24, 4-(2-cyclopropyl-5-methylsulfonyl-1-benzofuran-7-yl)-2-methylisoquinolin-1-one]
≤ 500 nM | ≤ 500 nM | ≤ 500 nM | 500 to 5000 nM | CCS(=O)(=O)Nc1cc(-c2cc(C)c(=O)n(C)c2)cc2c1nnn2Cc1ccccc1 [Example 27, N-[1-benzyl-6-(1,5-dimethyl-6-oxopyridin-3-yl)benzotriazol-4-yl]ethanesulfonamide]
≤ 500 nM | ≤ 500 nM | ≤ 500 nM | 500 to 5000 nM | CCS(=O)(=O)c1nn(C)c2cc(OCC3CC3)c(-c3cn(C)c(=O)c4ccccc34)cc12 [Example 30, 4-[6-(cyclopropylmethoxy)-3-ethylsulfonyl-1-methylindazol-5-yl]-2-methylisoquinolin-1-one]
≤ 500 nM | ≤ 500 nM | ≤ 500 nM | 500 to 5000 nM | Cc1cc(-c2cc(NS(C)(=O)=O)c3ncn(Cc4ccccc4)c3c2)cn(C)c1=O [Example 31, N-[1-benzyl-6-(1,5-dimethyl-6-oxopyridin-3-yl)benzimidazol-4-yl]methanesulfonamide]
